From patent US20180289678A1, “PHARMACEUTICAL COMPOSITION, PHARMACEUTICAL DOSAGE FORM, PROCESS FOR THEIR PREPARATION, METHODS FOR TREATING AND USES THEREOF” (Boehringer Ingelheim International GmbH, priority 2009, published 2018)
Where two headings read alike, the source gives them in different places.

Test: Study .2: multiple rising dose trial in diabetic patients, once daily for 8 days, pharmacokinetic parameters
Assay type: in vivo, human
Conditions: for Cmax / AUC / Tmax / AUC(0-inf): Study .2, fasted; for AUCτ,ss,norm Max / AUCτ,ss,norm Median / AUCτ,ss,norm Min / AUCτ,ss,norm gMean / Cmax,ss,norm Max / Cmax,ss,norm Median / Cmax,ss,norm Min / Cmax,ss,norm gMean: Study .2, steady state, dose-normalized
Protocol: 5. Pharmacokinetic Parameters
The pharmacokinetic parameters of pharmaceutical compositions and pharmaceutical dosage forms are assessed in healthy volunteer and patient populations. In the studies shown below, the participants fasted on the day of sampling, unless as otherwise stated (see for example study .3). The active substance in the studies below is the compound (I.9), preferably in the crystalline form (I.9X), and the dose of active ingredient is indicated in mg.
For the quantification of plasma concentrations of the active ingredient, 2.7 mL of blood was collected and transferred into an EDTA (ethylendiaminetetraacetic acid)-anticoagulant blood drawing tube. The EDTA-anticoagulated blood samples were centrifuged immediately after collection. Centrifugation lasted for about 10 minutes (at about 2,000×gf to 4,000×gf) at 4-8° C. or within 30 minutes while stored on ice. Concentrations of active substance in EDTA human plasma samples were quantitated using a HPLC/MS/MS method. The assay method comprised a solid phase supported liquid-liquid extraction of human plasma coupled with HPLC/MS/MS determination of the extracted samples. The HPLC/MS/MS assay was validated for the range of 1.11 to 1110 nM in human plasma.
Study .2: Multiple rising dose trial in a diabetic patient population of N=48, once daily administration for 8 days. Patients were administered tablets as described in Example 10 (section Examples of formulations).
AUC0-inf:area under the concentration-time curve of the analyte in plasma over the time interval from 0 extrapolated to infinity.
Cmax: maximum concentration of the analyte in plasma.
Tmax: time from dosing to maximum concentration.
AUCT,SS:area under the concentration-time curve of the analyte in plasma over the time interval from 0 to 24 h at steady-state.
Cmax,ss:maximum concentration of the analyte in plasma at steady state over a uniform dosing interval.
tmax,ss:time from dosing to maximum concentration at steady state.

- Cmax (25 mg single dose, read-out: Cmax Min): 420 nM
- AUCτ,ss,norm Max (dose 2.5 mg, plasma): 271 nmol·h/L/mg
- AUCτ,ss,norm Median (dose 2.5 mg, plasma): 183 nmol·h/L/mg
- AUCτ,ss,norm Min (dose 2.5 mg, plasma): 113 nmol·h/L/mg
- AUCτ,ss,norm gMean (dose 2.5 mg, plasma): 184 nmol·h/L/mg
- Cmax,ss,norm Max (dose 2.5 mg, plasma): 39 nmol/L/mg
- Cmax,ss,norm Median (dose 2.5 mg, plasma): 29 nmol/L/mg
- Cmax,ss,norm Min (dose 2.5 mg, plasma): 16 nmol/L/mg
- Cmax,ss,norm gMean (dose 2.5 mg, plasma): 27 nmol/L/mg
- AUCτ,ss,norm Max (dose 10 mg, plasma): 258 nmol·h/L/mg
- AUCτ,ss,norm Median (dose 10 mg, plasma): 194 nmol·h/L/mg
- AUCτ,ss,norm Min (dose 10 mg, plasma): 164 nmol·h/L/mg
- AUCτ,ss,norm gMean (dose 10 mg, plasma): 200 nmol·h/L/mg
- Cmax,ss,norm Max (dose 10 mg, plasma): 48 nmol/L/mg
- Cmax,ss,norm Median (dose 10 mg, plasma): 28 nmol/L/mg
- Cmax,ss,norm Min (dose 10 mg, plasma): 17 nmol/L/mg
- Cmax,ss,norm gMean (dose 10 mg, plasma): 27 nmol/L/mg
- AUCτ,ss,norm Max (dose 25 mg, plasma): 266 nmol·h/L/mg
- AUCτ,ss,norm Median (dose 25 mg, plasma): 182 nmol·h/L/mg
- AUCτ,ss,norm Min (dose 25 mg, plasma): 138 nmol·h/L/mg
- AUCτ,ss,norm gMean (dose 25 mg, plasma): 196 nmol·h/L/mg
- Cmax,ss,norm Max (dose 25 mg, plasma): 32 nmol/L/mg
- Cmax,ss,norm Median (dose 25 mg, plasma): 24 nmol/L/mg
- Cmax,ss,norm Min (dose 25 mg, plasma): 18 nmol/L/mg
- Cmax,ss,norm gMean (dose 25 mg, plasma): 25 nmol/L/mg
- AUC (human, plasma, oral, 2.5 mg, 2.5 mg once daily, steady state, read-out: AUCτ,ss Median): 0.458 µM·h
- AUC (human, plasma, oral, 2.5 mg, 2.5 mg once daily, steady state, read-out: AUCτ,ss gMean): 0.46 µM·h
- Cmax (human, plasma, oral, 2.5 mg, 2.5 mg once daily, steady state, read-out: Cmax,ss Median): 72 nM
- Cmax (human, plasma, oral, 2.5 mg, 2.5 mg once daily, steady state, read-out: Cmax,ss gMean): 66.6 nM
- Tmax (human, plasma, oral, 2.5 mg, 2.5 mg once daily, steady state, read-out: tmax,ss Mean): 1.33 h
- Tmax (human, plasma, oral, 2.5 mg, 2.5 mg once daily, steady state, read-out: tmax,ss g Mean): 1.28 h
- AUC(0-inf) (human, plasma, oral, 2.5 mg, 2.5 mg single dose, read-out: AUC0-inf Mean): 0.476 µM·h
- AUC(0-inf) (human, plasma, oral, 2.5 mg, 2.5 mg single dose, read-out: AUC0-inf Median): 0.501 µM·h
- AUC(0-inf) (human, plasma, oral, 2.5 mg, 2.5 mg single dose, read-out: AUC0-inf gMean): 0.468 µM·h
- Cmax (human, plasma, oral, 2.5 mg, 2.5 mg single dose, read-out: Cmax Median): 62.6 nM
- Cmax (human, plasma, oral, 2.5 mg, 2.5 mg single dose, read-out: Cmax gMean): 61.3 nM
- Tmax (human, plasma, oral, 2.5 mg, 2.5 mg single dose, read-out: tmax Mean): 1.41 h
- Tmax (human, plasma, oral, 2.5 mg, 2.5 mg single dose, read-out: tmax Median): 1.5 h
- Tmax (human, plasma, oral, 2.5 mg, 2.5 mg single dose, read-out: tmax gMean): 1.37 h
- AUC (human, plasma, oral, 10 mg, 10 mg once daily, steady state, read-out: AUCτ,ss Median): 1.94 µM·h
- AUC (human, plasma, oral, 10 mg, 10 mg once daily, steady state, read-out: AUCτ,ss gMean): 2 µM·h
- Cmax (human, plasma, oral, 10 mg, 10 mg once daily, steady state, read-out: Cmax,ss Median): 279 nM
- Cmax (human, plasma, oral, 10 mg, 10 mg once daily, steady state, read-out: Cmax,ss gMean): 272 nM
- Tmax (human, plasma, oral, 10 mg, 10 mg once daily, steady state, read-out: tmax,ss Mean): 1.43 h
- Tmax (human, plasma, oral, 10 mg, 10 mg once daily, steady state, read-out: tmax,ss Median): 1.5 h
- Tmax (human, plasma, oral, 10 mg, 10 mg once daily, steady state, read-out: tmax,ss g Mean): 1.4 h
- AUC(0-inf) (human, plasma, oral, 10 mg, 10 mg single dose, read-out: AUC0-inf Mean): 1.91 µM·h
- AUC(0-inf) (human, plasma, oral, 10 mg, 10 mg single dose, read-out: AUC0-inf Median): 1.83 µM·h
- AUC(0-inf) (human, plasma, oral, 10 mg, 10 mg single dose, read-out: AUC0-inf gMean): 1.89 µM·h
- Cmax (human, plasma, oral, 10 mg, 10 mg single dose, read-out: Cmax Median): 233 nM
- Cmax (human, plasma, oral, 10 mg, 10 mg single dose, read-out: Cmax gMean): 240 nM
- Tmax (human, plasma, oral, 10 mg, 10 mg single dose, read-out: tmax Mean): 1.5 h
- Tmax (human, plasma, oral, 10 mg, 10 mg single dose, read-out: tmax gMean): 1.48 h
- AUC (human, plasma, oral, 25 mg, 25 mg once daily, steady state, read-out: AUCτ,ss Median): 4.56 µM·h
- AUC (human, plasma, oral, 25 mg, 25 mg once daily, steady state, read-out: AUCτ,ss gMean): 4.89 µM·h
- Cmax (human, plasma, oral, 25 mg, 25 mg once daily, steady state, read-out: Cmax,ss Median): 603 nM
- Cmax (human, plasma, oral, 25 mg, 25 mg once daily, steady state, read-out: Cmax,ss gMean): 622 nM
- Tmax (human, plasma, oral, 25 mg, 25 mg once daily, steady state, read-out: tmax,ss Mean): 2.26 h
- Tmax (human, plasma, oral, 25 mg, 25 mg once daily, steady state, read-out: tmax,ss g Mean): 1.97 h
- AUC(0-inf) (human, plasma, oral, 25 mg, 25 mg single dose, read-out: AUC0-inf Mean): 4.9 µM·h
- AUC(0-inf) (human, plasma, oral, 25 mg, 25 mg single dose, read-out: AUC0-inf Median): 4.64 µM·h
- AUC(0-inf) (human, plasma, oral, 25 mg, 25 mg single dose, read-out: AUC0-inf gMean): 4.78 µM·h
- Cmax (human, plasma, oral, 25 mg, 25 mg single dose, read-out: Cmax Median): 569 nM
- Cmax (human, plasma, oral, 25 mg, 25 mg single dose, read-out: Cmax gMean): 592 nM
- Tmax (human, plasma, oral, 25 mg, 25 mg single dose, read-out: tmax Mean): 1.72 h
- Tmax (human, plasma, oral, 25 mg, 25 mg single dose, read-out: tmax Median): 1.5 h
- Tmax (human, plasma, oral, 25 mg, 25 mg single dose, read-out: tmax gMean): 1.6 h
Compound: OC[C@H]1O[C@@H](c2ccc(Cl)c(Cc3ccc(O[C@H]4CCOC4)cc3)c2)[C@H](O)[C@@H](O)[C@@H]1O [Compound (I.9), 1-chloro-4-(β-D-glucopyranos-1-yl)-2-[4-((S)-tetrahydrofuran-3-yloxy)-benzyl]-benzene]
